This note sets out measurements from patent US20250214991A1 (Oncopia Therapeutics, Inc. d/b/a/ SK Life Science Labs, priority 2022, published 2025).

Bounds are passed on as bounds.

One test has as its target CRBN/DDB1 (Homo sapiens (Human), UniProt Q96SW2). Put plainly: IC50 measurements for binding to CRBN/DDB1 (HTRF). To be noted: His tagged CRBN+DDB, Cy5-labeled Thalidomide probe, one hour. As for the experimental part: In vitro Assay: IC50 Measurements for binding to CRBN/DDB1 (Table E1)
The binding potency was determined using HTRF assay technology (Perkin Elmer). Compounds were serially diluted in DMSO and 0.2 μL volume was transferred to white 384-well plate. The reaction was conducted in total volume of 20 μL with addition of 2 nM His tagged CRBN+DDB−DLS7+CXU4 (Wuxi, catalogue #RP210521GA) to compounds followed by addition of 60 nM Fluorescent probe Cy5-labeled Thalidomide (Tenova Pharma, catalogue #T52461), and 0.4 nM of MAb Anti-6HIS Tb cryptate Gold (Cisbio, catalogue #61HI2TLA in the assay buffer (50 mM HEPES pH 7.5, 1 mM TCEP, 0.01% Brij-35, 50 mM NaCl, and 0.1% BSA). After one hour incubation at room temperature, the HTRF signals were read on Envision reader (Perkin Elemer). Data was analyzed using XLfit using four parameters dose response curve to determine IC50s. A: IC50<0.1 μM; B: 0.1 μM<IC50<[…]; C: 0.5 μM<IC50<1 μM; D: 1 μM<IC50<5 μM; E: 5 μM<IC50<10 μM
For orientation: In TR-FRET formats the signal depends on donor and acceptor labels being close together.

The target in a further test is IKZF2 (Homo sapiens (Human), UniProt Q96SW2+Q9UKS7). Nature of the test: In vitro IKZF2 HiBit Assay (HEK293T Flp-in-HiBiT cells). It counts as cell-based. To be noted: HEK293T Flp-in-HiBiT cells, 6 hrs incubation; for DC50: read-out: IKZF2 HiBit DC50; for Dmax: HEK-293T, read-out: IKZF2 HiBit Dmax (%). As for the experimental part:
In Vitro IKZF2 HiBit Assay
The HiBiT protein tagging system was applied to modified HEK293T Flp-in-HiBiT cells (polyclone) via a CRISPR/Cas9-mediated insertion of the HiBiT peptide tag (Promega™) to the N-terminus of the IKZF2 gene locus (Neon™ transfection system). Test and reference compounds are diluted from 1 mM at 3 folds for 11 doses. 25 nL of diluted compound is transfered to assay plates (Corning3570) using ECHO550, the final DMSO concentration @ 0.1%. The cells are seeded in 3000/25 μL/well to compound plates. It is then incubated for 6 hrs in TC incubator. The amount of Nano-Glo® HiBiT lytic reagent needed to perform the desired experiments is calculated. The Nano-Glo® HiBiT lytic reagent is brought to room temperature. The LgBiT protein is diluted to 1:100 and the Nano-Glo® HiBiT lytic substrate is diluted to 1:50 into an appropriate volume of room temperature Nano-Glo® HiBiT lytic buffer. 15 μL of the detection reagent (or without LgBiT) is dispensed to corresponding well according to the layout. The plate is then shaked for 10 mins at room temperature. After briefly centrifuge, the plate is read on Envision. At the indicated timepoints, the Nano-Glo® HiBiT lytic detection system (Promega™) was utilized for detecting bioluminescence of the HiBiT tag in treated cells: abundance of the tag is proportionate to the level of luminescence. Following normalization to DMSO, dose-response curves were plotted (GraphPad Prism) to determine the concentration points at which 50% of HiBiT-Helios degradation was achieved by each compound. The extent of degradation (range of luminescence) from the highest to lowest concentration points was calculated to determine the Dmax.
(§1) DC50, A: <1 nM; B: 1-10 nM; C: 10-100 nM; D: 100-1000 nM; E: 1000-10000 nM; F: >10,000 nM. Dmax, A: >80%; B: 60-80%; C: 40-60%; D: 20-40%; E: <20%.
(The HiBiT peptide binds its large partner to form an active luciferase.)

For another test, the target named is IKZF1 (Homo sapiens (Human), UniProt Q13422+Q96SW2). Nature of the test: In vitro IKZF1 HiBit Assay (HEK293T Flp-in-HiBiT-IKZF1 stable cell line). The test is classed as cell-based. To be noted: HEK293T Flp-in-HiBiT-IKZF1 stable cell line, 6 hrs incubation; for DC50: read-out: IKZF1 HiBit DC50; for Dmax: HEK-293T, read-out: IKZF1 HiBit Dmax (%). As to the method:
In Vitro IKZF1 HiBit Assay
The HiBiT protein tagging system was applied to modified Cells: modified HEK293T Flp-in-HiBiT-IKZF1 stable cell line (polyclone) via a CRISPR/Cas9-mediated insertion of the HiBiT peptide tag (Promega™) to the N-terminus of the […] gene locus (Neon™ transfection system).
25 nL of diluted compound is transferred to assay plates (Corning3571) using ECHO550, the final DMSO concentration @ 0.1%. The cells are seeded in 3000/25 μL/well to compound plates. The plates are incubated for 6 hrs in TC incubator. The amount of Nano-Glo® HiBiT lytic reagent needed to perform the desired experiments is calculated. The Nano-Glo® HiBiT lytic reagent is brought to room temperature. The LgBiT protein is diluted to 1:100 and the Nano-Glo® HiBiT lytic substrate is brought to 1:50 into an appropriate volume of room temperature Nano-Glo® HiBiT lytic buffer. 15 μL of the detection reagent (or without LgBiT) is dispensed to corresponding well according to the layout. The plate is shaked for 10 mins at room temperature. After briefly centrifuge, the plateis read on Envision. At the indicated timepoints, the Nano-Glo® HiBiT lytic detection system (Promega™) was utilized for detecting bioluminescence of the HiBiT tag in treated cells: abundance of the tag is proportionate to the level of luminescence. Following normalization to DMSO, dose-response curves were plotted (GraphPad Prism) to determine the concentration points at which 50% of HiBiT-Ikaros degradation was achieved by each compound. The extent of degradation (range of luminescence) from the highest to lowest concentration points was calculated to determine the Dmax.
as §1

CRBN/DDB1, sequence (Q96SW2 whole entry, species assumed): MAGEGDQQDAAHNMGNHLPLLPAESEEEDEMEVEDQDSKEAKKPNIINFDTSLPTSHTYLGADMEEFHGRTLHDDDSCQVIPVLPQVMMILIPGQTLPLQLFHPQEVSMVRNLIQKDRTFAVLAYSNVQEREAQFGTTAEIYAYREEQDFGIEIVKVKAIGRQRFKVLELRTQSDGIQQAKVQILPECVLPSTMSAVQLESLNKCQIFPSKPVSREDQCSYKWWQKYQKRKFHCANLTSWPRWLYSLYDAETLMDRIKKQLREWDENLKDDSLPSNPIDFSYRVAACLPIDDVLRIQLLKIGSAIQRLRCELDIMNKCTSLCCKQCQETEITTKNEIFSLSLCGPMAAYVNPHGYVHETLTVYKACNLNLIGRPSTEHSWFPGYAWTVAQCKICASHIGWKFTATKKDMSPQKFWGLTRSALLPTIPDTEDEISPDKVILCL
CRBN/DDB1, sequence (Q16531 whole entry partner, species assumed): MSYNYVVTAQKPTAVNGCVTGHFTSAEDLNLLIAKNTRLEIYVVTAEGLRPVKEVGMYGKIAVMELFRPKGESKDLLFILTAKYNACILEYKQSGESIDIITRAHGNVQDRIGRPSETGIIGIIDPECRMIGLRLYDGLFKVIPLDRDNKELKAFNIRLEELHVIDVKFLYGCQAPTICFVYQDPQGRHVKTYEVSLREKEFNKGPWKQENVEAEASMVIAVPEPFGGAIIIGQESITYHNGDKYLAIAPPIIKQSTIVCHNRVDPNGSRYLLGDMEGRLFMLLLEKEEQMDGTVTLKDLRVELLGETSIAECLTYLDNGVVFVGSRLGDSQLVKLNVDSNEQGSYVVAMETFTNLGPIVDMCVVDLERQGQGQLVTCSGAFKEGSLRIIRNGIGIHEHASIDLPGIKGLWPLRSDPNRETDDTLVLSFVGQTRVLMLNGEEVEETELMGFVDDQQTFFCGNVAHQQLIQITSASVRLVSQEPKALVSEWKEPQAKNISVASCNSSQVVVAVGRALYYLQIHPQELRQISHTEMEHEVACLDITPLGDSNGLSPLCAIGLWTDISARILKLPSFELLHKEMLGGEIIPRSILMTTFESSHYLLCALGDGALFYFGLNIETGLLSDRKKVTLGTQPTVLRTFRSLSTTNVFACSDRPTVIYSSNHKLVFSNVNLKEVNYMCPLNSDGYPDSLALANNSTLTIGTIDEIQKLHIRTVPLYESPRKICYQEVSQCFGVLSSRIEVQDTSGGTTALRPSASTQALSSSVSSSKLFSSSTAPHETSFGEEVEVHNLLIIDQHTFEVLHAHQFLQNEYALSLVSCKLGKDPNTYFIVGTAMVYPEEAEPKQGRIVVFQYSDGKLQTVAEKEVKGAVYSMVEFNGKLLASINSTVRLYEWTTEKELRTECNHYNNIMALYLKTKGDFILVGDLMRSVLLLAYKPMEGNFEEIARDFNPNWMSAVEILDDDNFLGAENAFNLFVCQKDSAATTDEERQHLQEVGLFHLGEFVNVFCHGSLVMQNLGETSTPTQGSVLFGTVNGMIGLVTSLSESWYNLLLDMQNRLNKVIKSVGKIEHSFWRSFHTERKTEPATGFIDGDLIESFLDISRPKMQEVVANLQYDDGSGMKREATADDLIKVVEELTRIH
IKZF2, sequence (Q9UKS7 whole entry): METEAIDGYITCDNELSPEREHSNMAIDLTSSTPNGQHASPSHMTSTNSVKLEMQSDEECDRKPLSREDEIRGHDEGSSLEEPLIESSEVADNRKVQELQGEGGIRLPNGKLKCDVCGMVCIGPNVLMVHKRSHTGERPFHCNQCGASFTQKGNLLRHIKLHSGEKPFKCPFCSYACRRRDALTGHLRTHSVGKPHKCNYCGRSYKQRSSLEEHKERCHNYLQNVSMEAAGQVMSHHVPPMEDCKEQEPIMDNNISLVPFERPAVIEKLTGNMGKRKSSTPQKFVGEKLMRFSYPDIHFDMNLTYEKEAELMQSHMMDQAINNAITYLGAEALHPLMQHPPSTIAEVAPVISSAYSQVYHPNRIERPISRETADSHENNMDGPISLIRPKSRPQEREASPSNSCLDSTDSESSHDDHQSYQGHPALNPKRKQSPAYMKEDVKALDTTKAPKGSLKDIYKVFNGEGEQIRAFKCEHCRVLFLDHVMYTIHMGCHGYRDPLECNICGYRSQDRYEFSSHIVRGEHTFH
IKZF2, sequence (Q96SW2 whole entry): as the sequence (Q96SW2 whole entry, species assumed) above
IKZF2, sequence (Q16531 2-1140 partner): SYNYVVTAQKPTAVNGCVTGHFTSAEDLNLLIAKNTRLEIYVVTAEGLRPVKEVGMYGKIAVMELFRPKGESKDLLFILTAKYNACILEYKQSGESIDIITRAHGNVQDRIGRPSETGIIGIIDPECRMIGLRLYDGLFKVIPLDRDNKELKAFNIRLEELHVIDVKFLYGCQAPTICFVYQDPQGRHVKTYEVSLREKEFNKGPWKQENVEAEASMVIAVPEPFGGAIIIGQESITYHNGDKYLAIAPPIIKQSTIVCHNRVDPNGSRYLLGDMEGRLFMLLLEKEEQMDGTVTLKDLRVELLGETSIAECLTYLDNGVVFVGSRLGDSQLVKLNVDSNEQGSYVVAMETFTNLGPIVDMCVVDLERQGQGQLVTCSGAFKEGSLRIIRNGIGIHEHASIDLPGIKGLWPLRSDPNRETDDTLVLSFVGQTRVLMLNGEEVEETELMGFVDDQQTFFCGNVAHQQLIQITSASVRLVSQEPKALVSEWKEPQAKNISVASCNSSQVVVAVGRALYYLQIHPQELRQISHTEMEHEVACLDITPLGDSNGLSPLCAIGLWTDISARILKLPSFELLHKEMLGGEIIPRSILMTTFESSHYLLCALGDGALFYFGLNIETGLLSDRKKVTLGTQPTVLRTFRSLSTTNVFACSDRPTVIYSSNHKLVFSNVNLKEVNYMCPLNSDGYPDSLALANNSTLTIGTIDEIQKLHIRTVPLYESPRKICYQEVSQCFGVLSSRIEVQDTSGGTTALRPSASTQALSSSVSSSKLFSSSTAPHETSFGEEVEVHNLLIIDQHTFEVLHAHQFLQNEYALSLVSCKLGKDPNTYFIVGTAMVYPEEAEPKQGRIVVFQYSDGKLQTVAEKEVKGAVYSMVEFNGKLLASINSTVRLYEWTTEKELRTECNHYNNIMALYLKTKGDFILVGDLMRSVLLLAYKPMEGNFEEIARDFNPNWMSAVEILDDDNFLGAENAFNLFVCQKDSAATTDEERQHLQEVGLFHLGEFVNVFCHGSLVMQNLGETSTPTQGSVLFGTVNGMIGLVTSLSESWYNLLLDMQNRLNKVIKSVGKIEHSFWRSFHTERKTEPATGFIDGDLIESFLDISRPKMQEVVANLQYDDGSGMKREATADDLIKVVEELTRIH
IKZF1, sequence (Q13422 whole entry): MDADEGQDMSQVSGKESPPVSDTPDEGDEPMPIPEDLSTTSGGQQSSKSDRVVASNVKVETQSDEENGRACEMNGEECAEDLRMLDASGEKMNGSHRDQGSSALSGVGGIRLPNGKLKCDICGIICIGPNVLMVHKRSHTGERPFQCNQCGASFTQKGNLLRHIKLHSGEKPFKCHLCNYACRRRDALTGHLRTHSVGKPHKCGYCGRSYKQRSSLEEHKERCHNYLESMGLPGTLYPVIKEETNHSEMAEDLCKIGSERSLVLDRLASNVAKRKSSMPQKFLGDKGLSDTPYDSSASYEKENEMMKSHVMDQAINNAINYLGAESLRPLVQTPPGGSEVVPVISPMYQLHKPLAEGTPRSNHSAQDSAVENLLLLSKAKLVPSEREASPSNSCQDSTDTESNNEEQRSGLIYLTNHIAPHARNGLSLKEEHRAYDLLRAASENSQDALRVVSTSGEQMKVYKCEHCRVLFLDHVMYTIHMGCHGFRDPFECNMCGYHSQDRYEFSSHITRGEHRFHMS
IKZF1, sequence (Q96SW2 whole entry): as the sequence (Q96SW2 whole entry, species assumed) above
IKZF1, sequence (Q16531 2-1140 partner): as the sequence (Q16531 2-1140 partner) above

On CRBN/DDB1, `Cn1ccc2c(CN3CC4(CCC4)C3)cc(-c3ccc4c(c3)CN(C3CCC(=O)NC3=O)C4=O)nc21` (centres unmarked) [Example 112, 3-(5-(4-((2-azaspiro[3.3]heptan-2-yl)methyl)-1-methyl-1H-pyrrolo[2,3-b]pyridin-6-yl)-1-oxoisoindolin-2-yl) piperidine-2,6-dione] returned an IC50 of 0.1 to 0.5 µM. Moreover, on IKZF2, the DC50 is less than 0.001 µM and the Dmax is greater than 80%. Further, on IKZF1, the DC50 fell in the range of 0.01 to 0.1 µM and the Dmax was 20 to 40%.

With `O=C1CCC(N2Cc3cc(-c4cc(CN5CCCC5)c5ncccc5n4)ccc3C2=O)C(=O)N1` (centres unmarked) [Example 104, 3-(1-oxo-5-(4-(pyrrolidin-1-ylmethyl)-1,5-naphthyridin-2-yl)isoindolin-2-yl) piperidine-2,6-dione], the IC50 on CRBN/DDB1 is 0.5 to 1 µM. Also, on IKZF2, the DC50 was in the range of 0.001 to 0.01 µM and the Dmax is greater than 80%. On IKZF1, the DC50 was greater than 10 µM and the Dmax was in the range of 20 to 40%.

`CN(C)C(=O)CC1CCN(Cc2cc(-c3ccc4c(c3)CN(C3CCC(=O)NC3=O)C4=O)nc3[nH]ccc23)C1` (centres unmarked) [Example 167, 2-(1-((6-(2-(2,6-dioxopiperidin-3-yl)-1-oxoisoindolin-5-yl)-1H-pyrrolo[2,3-b]pyridin-4-yl)methyl)pyrrolidin-3-yl)-N,N-dimethylacetamide]: the IC50 at CRBN/DDB1 was 0.1 to 0.5 µM. At IKZF2, the DC50 was 0.01 to 0.1 µM and the Dmax was 60 to 80%. Further, at IKZF1, the DC50 was 0.1 to 1 µM and the Dmax lay in the range of 20 to 40%.

Regarding `O=C1CCC(N2Cc3cc(-c4cc(CN5CCCC5c5ccccc5)cc5nncn45)ccc3C2=O)C(=O)N1` (centres unmarked) [Example 50, 3-(1-oxo-5-(7-((2-phenylpyrrolidin-1-yl)methyl)-[1,2,4]triazolo[4,3-a]pyridin-5-yl)isoindolin-2-yl) piperidine-2,6-dione], the IC50 on CRBN/DDB1 lay in the range of 1 to 5 µM.

`COc1cc(-c2cc(CN3CCCC3)cc3cncn23)cc2c1C(=O)N(C1CCC(=O)NC1=O)C2` (centres unmarked) [Example 32, 3-(7-methoxy-1-oxo-5-(7-(pyrrolidin-1-ylmethyl)imidazo[1,5-a]pyridin-5-yl)isoindolin-2-yl) piperidine-2,6-dione] gave an IC50 on CRBN/DDB1 of 0.1 to 0.5 µM.

Compound `O=C1CCC(N2Cc3cc(-c4cc(CN5CCCC5)cc5cncn45)c(F)cc3C2=O)C(=O)N1` (centres unmarked) [Example 29, 3-(6-fluoro-1-oxo-5-(7-(pyrrolidin-1-ylmethyl)imidazo[1,5-a]pyridin-5-yl)isoindolin-2-yl) piperidine-2,6-dione] gave an IC50 on CRBN/DDB1 of 1 to 5 µM.

In the case of `CC(C)Nc1n[nH]c2c(CN3CCCC3)cc(-c3ccc4c(c3)CN(C3(C)CCC(=O)NC3=O)C4=O)nc12` (centres unmarked) [Example 294, 3-(5-(3-(isopropylamino)-7-(pyrrolidin-1-ylmethyl)-1H-pyrazolo[4,3-b]pyridin-5-yl)-1-oxoisoindolin-2-yl)-3-methylpiperidine-2,6-dione], on IKZF2, the DC50 lay in the range of 1 to 10 µM and the Dmax was 20 to 40%. Further, on IKZF1, the DC50 is greater than 10 µM and the Dmax is less than 20%.

Regarding `CC(C)Nc1n[nH]c2c(CN3CCC(F)C3)cc(-c3ccc4c(c3F)CN(C3CCC(=O)NC3=O)C4=O)nc12` (centres unmarked) [Example 286], at IKZF2, the DC50 was in the range of 0.001 to 0.01 µM and the Dmax was in the range of 60 to 80%. Besides, on IKZF1, the DC50 was greater than 10 µM and the Dmax is less than 20%.

Consider `CO[C@H]1C[C@@H](Oc2ccnc3c(CN4CCCC4)cc(-c4ccc5c(c4)CN(C4CCC(=O)NC4=O)C5=O)nc23)C1` (some centres unmarked) [Example 281, 3-(5-(8-((1s,3s)-3-methoxycyclobutoxy)-4-(pyrrolidin-1-ylmethyl)-1,5-naphthyridin-2-yl)-1-oxoisoindolin-2-yl) piperidine-2,6-dione], for which the DC50 is 0.01 to 0.1 µM on IKZF2 and greater than 10 µM at IKZF1. In addition, the values for the Dmax at IKZF2 and at IKZF1 were 60 to 80% and less than 20%, respectively.

Turning to `O=C1CC[C@H](N2Cc3cc(-c4cc(CN5CCCC5)c5ccn(-c6cn[nH]c6)c5n4)ccc3C2=O)C(=O)N1` [Example 271, (S)-3-(5-(1-(1H-pyrazol-4-yl)-4-(pyrrolidin-1-ylmethyl)-1H-pyrrolo[2,3-b]pyridin-6-yl)-1-oxoisoindolin-2-yl) piperidine-2,6-dione], at IKZF2, the DC50 lay within 0.001 to 0.01 µM and the Dmax was greater than 80%. At IKZF1, the DC50 lay within 0.1 to 1 µM and the Dmax is 20 to 40%.

In the case of `O=C1CCC(N2Cc3cc(-c4cc(CN5CCCC5)cc5cncn45)cc(F)c3C2=O)C(=O)N1` (centres unmarked) [Example 28, 3-(7-fluoro-1-oxo-5-(7-(pyrrolidin-1-ylmethyl)imidazo[1,5-a]pyridin-5-yl)isoindolin-2-yl) piperidine-2,6-dione], the IC50 at CRBN/DDB1 lay in the range of 0.5 to 1 µM.

In the case of `CC(C)C1CN(Cc2cc(-c3ccc4c(c3)CN(C3CCC(=O)NC3=O)C4=O)nc3[nH]ccc23)CC1O` (centres unmarked) [Example 137, 3-(5-(4-((3-hydroxy-4-isopropylpyrrolidin-1-yl)methyl)-1H-pyrrolo[2,3-b]pyridin-6-yl)-1-oxoisoindolin-2-yl) piperidine-2,6-dione], the DC50 on IKZF2 lay within 0.001 to 0.01 µM; on IKZF1, 0.01 to 0.1 µM. For the same compound, the values for the Dmax on IKZF2 and at IKZF1 were greater than 80% and 20 to 40%, respectively.

`O=C1CCC(N2Cc3cc(-c4cc(CN5CCCC5)c5c(C(F)(F)F)n[nH]c5n4)ccc3C2=O)C(=O)N1` (centres unmarked) [Example 134, 3-(1-oxo-5-(4-(pyrrolidin-1-ylmethyl)-3-(trifluoromethyl)-1H-pyrazolo[3,4-b]pyridin-6-yl)isoindolin-2-yl) piperidine-2,6-dione]: on IKZF2, the DC50 was 0.001 to 0.01 µM and the Dmax was greater than 80%. Moreover, on IKZF1, the DC50 was greater than 10 µM and the Dmax was less than 20%.

Turning to `CC(Oc1ccnc2c(CN3CCCC3)cc(-c3ccc4c(c3)CN(C3CCC(=O)NC3=O)C4=O)nc12)C(F)(F)F` (centres unmarked) [Example 279, 3-(1-oxo-5-(4-(pyrrolidin-1-ylmethyl)-8-((1,1,1-trifluoropropan-2-yl)oxy)-1,5-naphthyridin-2-yl)isoindolin-2-yl) piperidine-2,6-dione], at IKZF2, the DC50 was in the range of 0.001 to 0.01 µM and the Dmax lay within 60 to 80%. At IKZF1, the DC50 was greater than 10 µM and the Dmax is less than 20%.

A word on the IC50: it is the concentration that inhibits the measured activity by half. The low end stands for higher potency, the high end for lower potency.
